Assays:
[1] = Obesity inhibition test in ICR male mice (body weight); assay type: in vivo, mouse; conditions: single forced administration
Procedure: An obesity inhibition test was performed by the following method using well-known laboratory animals. The process for determining obesity-inhibitory activity was as follows: Crj: 7 week-old ICR male mice (obtained from Charles River Japan Ltd) weeks were preliminarily fed for 1 week, then classified into groups each having 7 animals and subjected to the test. The animals were fed under controlled conditions at a temperature of 23±1° C., and a humidity of 55±5% under illumination for 12 hours per day. They were fed with a feed Labo MR (manufactured by Nippon Nosan) and allowed to take water ad libitum. α-Bisabolol was present in the form of liposome (prepared with 5% lecithin) to the final concentration of either 0.1% or 1%. The concentration of each sample solution was adjusted so that 0.1 ml of the solution was given per 10 g body weight of mice. The doses employed were […] and 1 g/kg. To a control group, 5% lecithin emulsion was administered. After fasting the mice, the sample was administered once by force on the next day. During the test period over 2 weeks, the body weight and general conditions were monitored.

COX (cyclooxygenase) = test: COX inhibitory ability in LPS-treated THP-1 cells; assay type: cell-based, human; conditions: LPS alone = 100
Procedure: To determine whether α-bisabolol had anti-inflammatory effects, the experiment of COX (cyclooxygenase) inhibitory ability was carried out using human monocytic cell, THP-1 cell (Korean Cell Line Bank) according to conventional method. The COX activity was measured in accordance with Methods in Enzymology 43:9 (1994) published by F. J. Van de Ouderaaa and Muytenhek. THP-1 cell line was cultivated and aliquoted into 24-well plate. The incubation volume per well was adjusted to 500 μl, 2 μl of the sample compound, which dissolved in lipopolysaccahride (1 μg/ml, Sigma) and solvents described in the following Table respectively, was added and cultivated for 24-48 hr under the same condition. After 24-48 hr, calcium ionophore (Sigma) and [1-14C] arachidonic acid 1 μl (in EtOH, 0.1 μCi/ml, Sigma) were added to each well, and cultivated for 10 min under the same condition. Following the cultivation, citric acid was added to each well for adjusting to pH 3.5, shaked, each 500 μl of cultivation solution taken from the plate was aliquoted into micro centrifuge tube, 700 μl of ethylacetate was added to thereto, and the solution was shaking extracted for 10 min. 500 μl of ethylacetate layer was concentrated using speed vacuum dryer for 20 min, 20 μl of the residual was dissolved in ethylacetate, and the resultant was employed with authentic standard in TLC plate. The radioactive band was identified by authentic eicosanoid standards, the radioactivity of the identified band was measured using BAS 2000 bio-imaging analyzer (Fuji, JP) (Table 7).

B16 mouse melanoma cells [2] = test: Inhibition of melanin production in B16 mouse melanoma cells; assay type: cell-based; conditions: 72 h, B16 F10 cells, 3 days, read-out: Inhibitory rate of melanin production (%)
Procedure: This cell pellets were dried at 60° C., 100 μl of 1M NaOH containing 10% DMSO was added to thereto, and intracellular melanin was obtained in incubator at 60° C.

B16 mouse melanoma cells [3] = test: Cytotoxicity at the test concentrations in B16 melanoma cells; assay type: cell-based; conditions: 1 ppm, 5 ppm and 10 ppm
intracellular tyrosinase = biological target: T1, intracellular tyrosinase (Mus musculus, UniProt P11344); test: Inhibition of intracellular tyrosinase activity in murine melanoma (B-16 F1) cells; conditions: B16-F1, read-out: Inhibitory rate of intracellular tyrosinase activity (%)
T1 sequence (P11344 19-533): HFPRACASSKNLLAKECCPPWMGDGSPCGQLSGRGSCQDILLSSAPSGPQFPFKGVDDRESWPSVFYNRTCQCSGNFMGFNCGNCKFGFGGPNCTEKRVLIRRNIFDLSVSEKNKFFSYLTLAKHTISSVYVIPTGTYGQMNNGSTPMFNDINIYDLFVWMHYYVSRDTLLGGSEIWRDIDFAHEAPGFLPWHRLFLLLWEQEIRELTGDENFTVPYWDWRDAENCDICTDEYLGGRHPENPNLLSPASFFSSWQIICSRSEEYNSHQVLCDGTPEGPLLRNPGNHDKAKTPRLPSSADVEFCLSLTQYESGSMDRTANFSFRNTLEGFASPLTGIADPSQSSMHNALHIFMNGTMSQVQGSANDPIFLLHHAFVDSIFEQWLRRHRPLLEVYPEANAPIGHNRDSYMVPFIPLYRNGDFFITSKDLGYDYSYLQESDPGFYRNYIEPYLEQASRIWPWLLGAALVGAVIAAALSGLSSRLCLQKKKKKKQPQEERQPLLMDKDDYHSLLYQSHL
Procedure: After measuring the inhibition of melanin production by α-bisabolol using B16 mouse melanoma cells (Korean Cell Line Bank), the measurement was compared with that for the inhibition of intracellular tyrosinase activities by arbutin, known as a melanin production inhibitor. Murine melanoma (B-16 F1) cells were seeded into each well of a 6-well plate (1×10^5 cells/well) in DMEM containing 10% FBS (fetal bovine serum) and the cells were cultured to about more than 80% adherence by incubating in a CO2 incubator under conditions of 37° C. and 5.0% CO2. After cultivation, the medium was removed and samples were replaced in medium diluted at suitable concentration, followed by incubating for 3 days under conditions of 37° C. and 5.0% CO2. […] The cells removing medium were washed with PBS (phosphate buffer saline) and treated with trypsin to collect cells. The number of the collected cells was calculated using hematocytometer, centrifuged at 5,000 to 10,000 rpm for 10 min and the supernatant was eliminated, thereby obtaining pellets. This cell pellets were lysated using lysis buffer, centrifuged at 12,000 rpm for 10 min and the supernatant was collected. Then, the cell solution was measured for absorbance at 492 nm using microplate reader and the activity of tyrosinase per cell constant number was estimated.

[4] = test system: procollagen type I C-peptide (PICP); test: Collagen synthesis (procollagen type I C-peptide) in human fibroblasts; assay type: cell-based; conditions: 24 hr
Procedure: Human fibroblasts (commercially available from pacific) were seeded into a 6-well plate (2×10^5 cells/well) and the well plate was incubated in a 5% CO2 incubator for 24 hr at 37° C. After 24 hr, the medium in each well was removed and cells were incubated with various concentrations of samples for 24 hr. Afterwards, the cell medium was collected and was used as samples. The potential of collagen synthesis was determined by measuring the amount of procollagen type I C-peptide (PICP) in cell medium using Procollagen Type I C-peptide EIA kit (MK101, Takara, Kyoto, Japan) in accordance with manufacturer's protocol.

collagenase = test: Collagenase activity in human fibroblast medium (Type 1 collagenase assay kit); assay type: cell-based; conditions: human fibroblasts, 24 hr
Procedure: Human fibroblasts (commercially available from pacific) were seeded into a 6-well plate (2×10^5 cells/well) and the well plate was incubated in a 5% CO2 incubator for 24 hr at 37° C. After 24 hr, the medium in each well was removed and cells were incubated with various concentrations of samples for 24 hr. Afterwards, the cell medium was collected and was used as samples.
For measuring the collagenase activity, antibodies against collagenase was used. The collagenase activity was measured using a Type 1 collagenase assay kit (Amersham Biosciences, RPN2629) and the absorbance values were obtain using an ELISA reader (Bio-Tek ELx808™ Series Ultra Microplate Reader, U.K). The measured average values were represented as mean±standard deviation.

Interleukin-2 promoter = test: Interleukin-2 luciferase reporter activity in PHA-activated Jurkat cells; assay type: cell-based, human; conditions: 24 hr, PHA alone = 100
Procedure: Interleukin-2 promoter was reported to play an important role in the generation of cytokine related to inflammatory. The activity of interleukin-2 luciferase was measured using the following method: Human T lymphocytes cell line, 1×10^6 of Jurkat cell (Korean Cell Line Bank) were aliquoted into each well of 6-wells, IL-2 luciferase reporter plasmid DNA (Stratagene) was transfected using superfect transfection reagent (In vitrogen). 24 hr after transfection, PHA (Phytohemaglutinin, Sigma) (100 ng/ml) was treated to activate Jurkat cell and each samples was treated with varying concentration. Following 24 hr, the cell was collected and the luciferase activity was measured using luminometer (Berthold Technologies GmbH&Co.KG, Germany).

brown guinea pigs = test: Skin whitening effect in UV-pigmented brown guinea pigs; assay type: in vivo, guinea pig; conditions: for Whitening effects (ΔL): once or twice a day for 50 days, control ΔL 0.35
Procedure: A skin whitening effect of α-bisabolol was measured using brown guinea pigs (Charles River Laboratories, Inc.) pigmentation of which is known to increase upon exposure to ultraviolet light like human.
To induce pigmentation in the brown guinea pig by ultraviolet (UV), aluminum foil with square windows of 3×3 cm^2 was adhered to hair-removed abdominal skin of brown guinea pig, and then UV light was irradiated thereon with a SE lamp (wavelength 290-320 nm, Toshiba) (total irradiation energy=1350 mJ/cm^2). After UV irradiation, the aluminum foil was removed and samples (α-bisabolol or arbutin) were applied as the following method. Increased pigmentation was observed on 2-3 days after UV irradiation and reached a maximum after about 2 weeks. Following the period of time showing the maximum pigmentation, samples were applied.
The application of samples was performed once or twice a day for 50 days. The samples were dissolved or diluted in a solvent (Propylene glycol:ethanol:water 5:3:2) and applied by a swab. The control with only the solvent was applied to another site. The occurrence of cumulative irritation was also examined.
The degree of pigmentation of skin was determined using a chromameter (CR2002, MINOLTA, JP) to estimate the effects of applied samples. La*b* calorimetric system was used to classify color and L* value was used as standard in Example. The L* value was corrected using white board standard and was measured more than five times at one site. Pigmentation was evenly distributed. Skin color differences (ΔL*) between application starting point and application end point were obtained and used to evaluate effects of samples.
ΔL*=L* value on […] after application−L* value on application starting day Equation 1
ΔL* values were obtained for control and sample application to evaluate skin whitening effects.

[5] = Anti-oxidation: removal of superoxide anion (SOD Assay Kit-WST); assay type: biochemical
Procedure: Superoxide dismutase (SOD) has been known as an anti-oxidation-catalyzing enzyme which converts superoxide anion into H2O2 and O2. This experiment evaluates anti-oxidation activity of samples by observing removal of superoxide anion generated by xanthine oxidase. The experiment was performed using the kit (SOD Assay Kit-WST) purchased from Dojindo (JP) in accordance with manufacture's protocol.

## CC(C)=CCC[C@](C)(O)C1CC=C(C)CC1 (stereo in doubt) [α-Bisabolol, (2S)-6-methyl-2-[(1R)-4-methyl-1-cyclohex-3-enyl]hept-5-en-2ol]
[1]; 0.1% in liposome, day 5, untreated 24
  Body weight: 24 g
[1]; 0.1% in liposome, day 10, untreated 28
  Body weight: 24 g
[1]; 0.1% in liposome, day 15, untreated 34
  Body weight: 26 g
[1]; 1% in liposome, day 5, untreated 24
  Body weight: 23 g
[1]; 1% in liposome, day 10, untreated 28
  Body weight: 24 g
[1]; 1% in liposome, day 15, untreated 34
  Body weight: 26 g
COX (cyclooxygenase); 1 ppm with LPS (1 μg/ml)
  COX activities (%): 95%
COX (cyclooxygenase); 5 ppm with LPS (1 μg/ml)
  COX activities (%): 75%
COX (cyclooxygenase); 10 ppm with LPS (1 μg/ml)
  COX activities (%): 67%
B16 mouse melanoma cells [2]; 1 ppm
  inhibition at 1 ppm: 24%
B16 mouse melanoma cells [2]
  inhibition at 5 ppm: 36%
B16 mouse melanoma cells [2]; 10 ppm
  inhibition at 10 ppm: 49%
B16 mouse melanoma cells [3]
  Cytotoxicity: did not show cytotoxicity
Intracellular tyrosinase
  inhibition at 1 ppm: 13%
  inhibition at 5 ppm: 38%
  inhibition at 10 ppm: 58%
[4]; 1 ppm
  Increase of collagen synthesis (%): 23%
[4]; 5 ppm
  Increase of collagen synthesis (%): 43%
[4]; 10 ppm
  Increase of collagen synthesis (%): 76%
collagenase; 1 ppm
  Inhibition of collagenase (%): 12%
collagenase; 5 ppm
  Inhibition of collagenase (%): 28%
collagenase; 10 ppm
  Inhibition of collagenase (%): 43%
Interleukin-2 promoter; 1 ppm with PHA (100 ng/ml)
  IL-2 luciferase activities: 92
Interleukin-2 promoter; 5 ppm with PHA (100 ng/ml)
  IL-2 luciferase activities: 72
Interleukin-2 promoter; 10 ppm with PHA (100 ng/ml)
  IL-2 luciferase activities: 58
Brown guinea pigs; 0.2 % topical
  Whitening effects (ΔL): 0.42
Brown guinea pigs; 1.0 % topical
  Whitening effects (ΔL): 0.67
Brown guinea pigs; topical on brown guinea pig skin for 50 days
  Cumulative irritation: no observation of cumulative irritation
[5]; 1 ppm
  Removal rate of superoxide anion (%): 8%
[5]; 5 ppm
  Removal rate of superoxide anion (%): 18%
[5]; 10 ppm
  Removal rate of superoxide anion (%): 34%

## OC[C@H]1O[C@@H](Oc2ccc(O)cc2)[C@H](O)[C@@H](O)[C@@H]1O [Arbutin, reference compound]
B16 mouse melanoma cells [2]
  inhibition at 5 ppm: 22%
Intracellular tyrosinase
  inhibition at 5 ppm: 45%
Brown guinea pigs; 1.0 % topical
  Whitening effects (ΔL): 0.54

— patent publication US20100015071A1, “Compositions for Improving Skin Conditions Comprising Alpha-Bisabolol as an Active Ingredient” (Biospectrum Inc., priority 2007, published 2010)
